From patent publication US20220259252A1, “4'-ETHYNYL-2'-DEOXYADENOSINE DERIVATIVES AND THEIR USE IN HIV THERAPY” (priority 2019, published 2022)

How the values were obtained:
[1] = test system: HIV pseudotyped virus (NL4-3 provirus, luciferase reporter), WT, in U373 cells expressing human CD4 and CXCR4 or CCR5; experiment: Pseudotyped virus (PSV) assay, WT; conditions: Human immunodeficiency virus 1, NL43, U373 MG, 72 h, read-out: WT IC50
Source text: A pseudotyped virus assay (PSV) was used to assess the potency of the HIV inhibitor. Replication defective virus was produced by co-transfection of a plasmid containing an NL4-3 provirus [containing a mutation in the envelope open reading frame (ORF) and a luciferase reporter gene replacing the nef ORF] and a CMV-promoter expression plasmid containing an ORF for various HIV gp160 envelope clones. The harvested virus was stored at −80 C in small aliquots and the titer of the virus measured to produce a robust signal for antiviral assays.
The PSV assay was performed by using U373 cells stably transformed to express human CD4, the primary receptor for HIV entry and either human CXCR4 or human CCR5 which are the co-receptors required for HIV entry as target cells for infection. […] This dose-range was applied to U373 cells and the pre-made pseudotyped virus added. The amount of luciferase signal produced after 3 days of culture was used to reflect the level of pseudotyped virus infection. An IC50, or the concentration of inhibitor required to reduce PSV infection by 50% from the infection containing no inhibitor was calculated. […] IC50 values were determined from a 10 point dose response curve using 3-4-fold serial dilution for each compound, which spans a concentration range >1000 fold.
These values are plotted against the molar compound concentrations using the standard four parameter logistic equation:
y=((V max*x^n)/(K^n+x^n)+Y2
Y2=minimum y n=slope factor
Vmax=maximum y x=compound concentration [M]

[2] = test system: HIV pseudotyped virus (NL4-3 provirus, luciferase reporter), M184V, in U373 cells expressing human CD4 and CXCR4 or CCR5; assay type: cell-based; conditions: PSV assay, luciferase signal after 3 days

Compound	IC50 [1] [nM]	IC50 [2] [nM]
C#C[C@]1(CO)O[C@@H](n2cnc3c(N)nc(F)nc32)C[C@@H]1OC(=O)CCCCCCCCCCCCCCCCCCC(=O)O [Example 2, 20-(((2R,3S,5R)-5-(6-amino-2-fluoro-9H-purin-9-yl)-2-ethynyl-2-(hydroxymethyl)tetrahydrofuran-3-yl)oxy)-20-oxoicosanoic Acid]	6.4	35.7
C#C[C@]1(CO)O[C@@H](n2cnc3c(N)nc(F)nc32)C[C@@H]1OC(=O)CCCC(=O)OC(COC(=O)CCCCCC)COC(=O)CCCCCC [Example 7, (2R,3S,5R)-5-(6-amino-2-fluoro-9H-purin-9-yl)-2-ethynyl-2-(hydroxymethyl)tetrahydrofuran-3-yl (1,3-bis(heptanoyloxy)propan-2-yl) glutarate]	232	1190
C#C[C@]1(CO)O[C@@H](n2cnc3c(N)nc(F)nc32)C[C@@H]1OC(=O)CCCCCCCCC(=O)O [Example 1, 10-(((2R,3S,5R)-5-(6-amino-2-fluoro-9H-purin-9-yl)-2-ethynyl-2-(hydroxymethyl)tetrahydrofuran-3-yl)oxy)-10-oxodecanoic Acid]	78.4	348
C#C[C@]1(CO)O[C@@H](n2cnc3c(N)nc(F)nc32)C[C@@H]1OC(=O)COCCOC [Example 4, (2R,3S,5R)-5-(6-amino-2-fluoro-9H-purin-9-yl)-2-ethynyl-2-(hydroxymethyl)tetrahydrofuran-3-yl 2-(2-methoxyethoxy)acetate]	3.8	25.9
C#C[C@]1(CO)O[C@@H](n2cnc3c(N)nc(F)nc32)C[C@@H]1OC(=O)CCCCCCCCCCCCC(=O)O [Example 3, 14-(((2R,3S,5R)-5-(6-amino-2-fluoro-9H-purin-9-yl)-2-ethynyl-2-(hydroxymethyl)tetrahydrofuran-3-yl)oxy)-14-oxotetradecanoic Acid]	5.4	24.4
C#C[C@]1(CO)O[C@@H](n2cnc3c(N)nc(F)nc32)C[C@@H]1OC(=O)CNC(=O)CCCCCC [Example 6, (2R,3S,5R)-5-(6-amino-2-fluoro-9H-purin-9-yl)-2-ethynyl-2-(hydroxymethyl)tetrahydrofuran-3-yl heptanoylglycinate]	2.2	11.4
C#C[C@]1(CO)O[C@@H](n2cnc3c(N)nc(F)nc32)C[C@@H]1OC(=O)COCCOCCOC [Example 5, (2R,3S,5R)-5-(6-amino-2-fluoro-9H-purin-9-yl)-2-ethynyl-2-(hydroxymethyl)tetrahydrofuran-3-yl 2-(2-(2-methoxyethoxy)ethoxy)acetate]	5.5	22.1
C#C[C@]1(CO)O[C@@H](n2cnc3c(N)nc(F)nc32)C[C@@H]1OC(=O)CCCC(=O)OC(COC(=O)CCCCCCCCCCCCC)COC(=O)CCCCCCCCCCCCC [Example 8, (2R,3S,5R)-5-(6-amino-2-fluoro-9H-purin-9-yl)-2-ethynyl-2-(hydroxymethyl)tetrahydrofuran-3-yl (1,3-bis(tetradecanoyloxy)propan-2-yl) glutarate]	1860	15000
C#C[C@]1(CO)O[C@@H](n2cnc3c(N)nc(F)nc32)C[C@@H]1O [EFdA, 4′-ethynyl-2-fluoro-2′-deoxyadenosine, reference compound]	6.5	35.1
